Source: patent US12403114B2, “Cannabinoid acid ester compositions and uses thereof” (EPM (IP), INC., priority 2019, dated 2025)
“Also recorded” adds a separate entry of the source.

Key:
Format in all cases: cell-based
[1] = molecular target: T1, glucose transporter 2 (GLUT2) (Homo sapiens, UniProt P11168); assay: 2-NBDG glucose uptake in transfected HEK293t cells; settings: 50-0.1 μM tested
T1 construct: expressed in transfected cells; host or cells: HEK293t
T1 sequence (P11168 1-524): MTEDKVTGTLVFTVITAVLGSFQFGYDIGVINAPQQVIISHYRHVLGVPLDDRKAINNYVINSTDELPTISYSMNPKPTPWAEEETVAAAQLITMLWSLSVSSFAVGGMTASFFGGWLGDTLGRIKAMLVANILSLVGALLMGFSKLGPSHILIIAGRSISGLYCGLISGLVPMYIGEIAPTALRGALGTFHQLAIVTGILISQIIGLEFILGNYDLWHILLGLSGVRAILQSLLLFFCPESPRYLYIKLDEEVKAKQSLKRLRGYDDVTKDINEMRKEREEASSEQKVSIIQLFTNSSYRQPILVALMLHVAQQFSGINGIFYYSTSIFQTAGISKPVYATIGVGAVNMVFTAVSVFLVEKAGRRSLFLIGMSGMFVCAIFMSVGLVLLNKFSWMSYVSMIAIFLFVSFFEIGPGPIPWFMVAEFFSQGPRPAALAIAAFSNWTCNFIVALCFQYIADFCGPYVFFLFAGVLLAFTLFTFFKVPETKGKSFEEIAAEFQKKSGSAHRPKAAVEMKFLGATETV
Protocol: In vitro assays for measuring glucose uptake were designed to assess whether EPM-301 and EPM-302 compounds are capable of inhibiting or increasing glucose uptake via glucose transporters (GLUTs).
Transfected HEK293t cells, which express the glucose transporter 2 (GLUT2), were cultured in a 96 well plate and maintained at 37° C. in 5% CO2 in DMEM medium supplemented with 10% FCS, 2 mM 1-glutamine, 1 mM sodium pyruvate, 100 U/mL penicillin, and […] streptomycin for 24 h. The medium was then washed with a choline chloride Na^+-free buffer (CCB), in which only GLUTs (and not the sodium/glucose transporters [SGLTs]) were active. The wells were then added with CCB/CCB+2-NBDG (a fluorescent derivative of glucose). Compounds were tested in a range of concentrations for their ability to inhibit/increase 2-NBDG uptake into the cells. After 1.5 h incubation, cells were washed with CCB and incubated with 1 μg/μL of Hoechst for 15 mins at 37° C. and protected from light. Fluorescence was measured by the Cytation-3 plate reader at ex:485 nm/em:528 nm and ex:350 nm/em:461 nm for 2-NBDG Hoechst, respectively. Results of the 2-NBDG levels were normalized to Hoechst levels of each well, and presented as a change in the uptake of 2-NBDG in comparison with Vehicle-treated group.
Vehicle solution (choline chloride buffer), EPM-301 (50-0.1 μM), and EPM-302 (50-0.1 μM) were used for the experiments.
Values are expressed as mean±SEM. Unpaired two-tailed student's t-test was used to determine the differences between the groups. Significance was set at p<0.05. *versus vehicle; #versus control.

LLCPK1 cells = assay: Cellular lipid accumulation test in renal proximal tubule cells; settings: 3.125-25 μM; cells exposed to a mixture of oleate and palmitate, 24 hr (FIG. 31)
Protocol: (§1) To test whether CBDA-ME has the ability to reduce lipid accumulation in renal proximal tubule cells, we have utilized an in vitro model of fat accumulation in LLCPK1 cells. Briefly, LLCPK1 cells were maintained at 37° C. in 5% CO2 in DMEM medium supplemented with 10% FCS, 2 mM 1-glutamine, 1 mM sodium pyruvate, 100 U/mL penicillin and […] streptomycin. Free fatty acids (2:1, molar ratio, oleic and palmitic acids) were mixed with bovine serum albumin (BSA). Cells were incubated with fatty acid-BSA complex in FCS-free culture medium at 0.3 mM final concentration of fatty acid and 1% of BSA. Control cell cultures were incubated with medium containing the vehicle. Compounds were tested in a range of concentrations (as detailed in the results section) in the presence/absence of fatty acids. After 24 hr of incubation with the compounds, the cells were washed, incubated with 1 μg/mL mixture of Nile-Red/Hoechst solution for 15 mins at 37° C. protected from light. Fluorescence was measured by the Cytation-3 plate reader at ex:488 nm/em:550 for Nile-Red and Hoechst, respectively. Results were normalized to total protein levels of each well, and presented as a change in the accumulation of lipids in comparison with Vehicle-treated group.

[2] = system: Human hepatoma HepG2 cells; assay: Fat accumulation in hepatocytes (Nile-Red); settings: 0.3 mM oleic:palmitic acids, 24 hr; EPM-301 effect at high (50 and 10 μM) and low (0.025 and 0.001 μM) concentrations, bell-shaped (FIG. 37, 38)
Protocol: as §1, with “An in vitro model of fat accumulation in hepatocytes was used to” for “To”, “compounds EPM-301 and EPM-302 have” for “CBDA-ME has”, “hepatocytes Human hepatoma HepG2” for “renal proximal tubule cells, we have utilized an in vitro model of fat accumulation in LLCPK1 cells. Briefly, LLCPK1”, “concentrations” for “concentrations (as detailed”, “presence” for “results section) in the presence/absence”, “nm/em:550 nm and ex:350 nm/em:461 nm” for “nm/em:550”
[…] EPM-301 at 50 μM was used as positive control.
Values are expressed as mean±SEM. […]

C=C(C)[C@@H]1CCC(C)=CC1c1c(O)cc(CCCCC)c(C(=O)OC)c1O (stereo partly shown) [EPM-301, cannabidiolic acid methyl ester]
concentration at which the effect on glucose transport was observed [1]: 50 µM | glucose uptake (2-NBDG) in HEK293 cells ([1]; 1.5 h incubation, versus vehicle (FIG. 36A, 36B)): significantly reduce | fat accumulation in kidney cells (lipotoxicity) (LLCPK1 cells): prevent | amount of fat accumulation in hepatocytes [2]: significantly reduce; also recorded: ineffective
